Laboratory results from patent publication US10814612B2, “Use of thiazolide compounds for the prevention and treatment of viral diseases, cancer and diseases caused by intracellular infections” (priority 2011, dated 2020).
Like-named read-outs stand apart in the source and are kept apart here.

What was measured:
[1] = system: CD14+ cells (monocytes); format: cell-based, human
[2] = system: Type I interferon signalling pathway; experiment: Type I interferon pathway Real-time PCR array (84 genes) in PBMC; format: cell-based, human
[3] = system: CD4+ T cells; experiment: T helper functions: IFNγ- and IL2-secreting CD4+ T cells; format: cell-based, human; conditions: for IFN-γ production by CD4+ T cells: 0.5 μg/ml
[4] = system: CD8+ T cells; experiment: CTL activity: perforin-, granzyme- and Fas-expressing CD8+ T cells; format: cell-based, human; conditions: for percentage of Fas-expressing CD8+ T cells: 20 and 40 μg/ml
[5] = system: RNA and DNA viruses including influenza A and hepatitis C viruses; conditions: cited from earlier work
[6] = humans, cited from earlier work
[7] = system: rotavirus gastroenteritis, norovirus gastroenteritis and chronic hepatitis C; conditions: clinical trials; cited from earlier work
[8] = system: Toll-Like Receptor signalling pathway; experiment: TLR pathway Real-time PCR array (84 genes) in PBMC; format: cell-based, human; conditions: 3 hours
[9] = PMBCs, TIZ 0.5, 1.0 and 10 mg/ml, FIG. 3A
[10] = after oral nitazoxanide or nitazoxanide plus tizoxanide
[11] = all five doses, unstimulated and flu-stimulated
[12] = flu-stimulated PBMC, all doses tested
[13] = flu-stimulated PBMC, 3 hours, 1 μg/ml

Compound: O=C(Nc1ncc([N+](=O)[O-])s1)c1ccccc1O [Tizoxanide]
- TLR3- expression on monocytes [1]: increase
- TLR7- expression on monocytes [1]: increase
- TLR8- expression on monocytes [1]: increase
- IFNα-mRNA expression [2, 9]: increase
- IFNβ-mRNA expression [2, 9]: increase
- mRNA specific for type I IFN inducible genes (MXA, PRKCZ, ADAR, CXCL10, IRF1, PRKRA) ([2]; PMBCs, TIZ 0.5, 1.0 and 10 mg/ml, FIG. 3B): increase
- mRNA specific for gene involved in MHC class I presentation (HLA-A, HLA-B, TAP1) ([2]; PMBCs, TIZ 0.5, 1.0 and 10 mg/ml, FIG. 3C): increase
- IFNγ-secreting CD4+ T cells ([3]; PMBCs, TIZ 0.5, 1.0 and 10 mg/ml, unstimulated and flu-stimulated, FIG. 4A): increase
- IL2-secreting CD4+ T cells ([3]; PMBCs, TIZ 0.5, 1.0 and 10 mg/ml, unstimulated and flu-stimulated, FIG. 4B): increase
- CTL degranulation ([4]; PMBCs, TIZ 0.5, 1.0 and 10 mg/ml, FIG. 5B): increase
- Fas-expressing CD8+ T cells ([4]; PMBCs, TIZ 0.5, 1.0 and 10 mg/ml, FIG. 5C): increase
- replication of RNA and DNA viruses including influenza A and hepatitis C viruses [5]: inhibit replication
- half-life in plasma [6, 10]: approximately 1.5 hours
- urinary elimination half-life [6, 10]: 7.3 h
- plasma protein binding [6]: bound to plasma proteins

Compound: CC(=O)Oc1ccccc1C(=O)Nc1ncc([N+](=O)[O-])s1 [Nitazoxanide, 2-(acetolyloxy)-N-(5-nitro-2-thiazolyl) benzamide]
- effectiveness in treating chronic hepatitis C [7]: effective
- effectiveness in treating norovirus gastroenteritis [7]: effective
- effectiveness in treating rotavirus gastroenteritis [7]: effective
- replication of RNA and DNA viruses including influenza A and hepatitis C viruses [5]: inhibit replication

Compound: O=C(Nc1ncc(Cl)s1)c1ccccc1O [RM-4848, N-(5-chlorothiazol-2-yl)-2-hydroxybenzamide]
- TLR3-expressing CD14+ cells [1, 11]: no effect
- TLR8-expressing CD14+ cells [1, 11]: no effect
- percentage of TLR7-expressing CD14+ cells compared to control ([1]; flu-antigenic stimulation, 1.0 μg/ml dose: p=0.001, 10 μg/ml dose: p=0.023): increase
- percentage of TLR7-expressing CD14+ cells compared to control ([1]; unstimulation condition): no significative differences
- INFA1 mRNA fold increase ([8]; flu-stimulated PBMC, 1 μg/ml): ~6 fold
- INFB1 mRNA fold increase ([8]; flu-stimulated PBMC, 1 μg/ml): ~6 fold
- TLR3 mRNA fold increase ([8]; flu-stimulated PBMC, 1 μg/ml): ~7 fold
- TLR5 mRNA fold increase ([8]; flu-stimulated PBMC, 1 μg/ml): ~7 fold
- TLR9 mRNA fold increase ([8]; flu-stimulated PBMC, 20 μg/ml): ~6 fold
- TLR8 mRNA fold change [8, 12]: > 2 fold
- TLR-7 mRNA fold change [8, 12]: > 2 fold
- IL1A mRNA fold increase ([8]; un-stimulated PBMC, 20 μg/ml): ~5 fold
- IL1B mRNA fold increase ([8]; un-stimulated PBMC, 20 μg/ml): ~5 fold
- IL6 mRNA fold increase ([8]; un-stimulated PBMC, 20 μg/ml): ~6 fold
- IFI27 mRNA fold increase ([2]; flu-stimulated PBMC, 10 μg/ml): > 4 fold
- IFIT1 mRNA fold increase ([2]; flu-stimulated PBMC, 10 μg/ml): > 4 fold
- IFNA2 mRNA fold increase [2, 13]: 6 fold
- INFA1 mRNA fold increase [2, 13]: 10 fold
- INFA4 mRNA fold increase [2, 13]: 10 fold
- INFB1 mRNA fold increase [2, 13]: 8 fold
- expression of the ISGs, IFI27 and IFIT1 ([2]; flu-stimulated PBMC, the three dose levels (1, 10, 20 μg/ml)): moderately up-regulated
- Type I IFN inducible genes (CD70, COL16A1, HSPA1L, IFI27, IFIT1, NRG1 and SHB) ([2]; summary of Examples 4-8): upregulated
- INFA1 mRNA fold decrease ([2]; un-stimulated PBMC, 20 μg/ml): 20 fold
- INFA2 mRNA fold decrease ([2]; un-stimulated PBMC, 20 μg/ml): 15 fold
- INFA4 mRNA fold decrease ([2]; un-stimulated PBMC, 20 μg/ml): 10 fold
- INFB1 mRNA fold decrease ([2]; un-stimulated PBMC, 20 μg/ml): 15 fold
- down-regulating effects on interferon genes ([2]; un-stimulated PBMC, two lower doses of 1 and 10 μg/ml): not seen
- IFN-γ production by CD4+ T cells ([3]; Flu-stimulated conditions, p=0.050): statistically significant upregulation
- IFN-γ production by CD4+ T cells ([3]; un-stimulated cells, p=0.035): statistically significant upregulation
- percentage of Fas-expressing CD8+ T cells ([4]; Flu-stimulated, p=0.003): statistically significantly increased
- degranulation of CTLs, evaluated by reduction in perforin expression ([4]; three higher dose levels tested): induced a degranulation
- percentage of Fas-expressing CD8+ T cells ([4]; un-stimulated, p=0.006): statistically significantly increased
